Target: prolyl endopeptidase (Elizabethkingia meningoseptica, UniProt P27028)
Assay: Measurement of anti-prolyl endopeptidase activity (Z-glycyl-proline-β-naphthylamide substrate)
Assay type: biochemical
Conditions: amount for 50% inhibition, pH 7.0, 35° C., 10 minutes, absorbance at 410 nm
Description: The method of Yoshimoto and Tsuru [T. Yoshimoto and D. Tsuru, Agric. Biol. Chem., 42, 2417 (1978)] was used to measured the anti-prolyl endopeptidase activities of several compounds of the present invention. A mixture of 0.0025M Z-glycyl-proline-β-naphthylamide (0.25 ml), 0.1M phosphate buffer (pH, 7.0; 0.99 ml) and a solution of a particular anti-prolyl endopeptidase compound (0.01 ml) was incubated in a test tube at 37° C. for 3 minutes. Thereafter, 0.1 ml of a solution of prolyl endopeptidase (0.2 U/ml) was added and the mixture was incubated at 35° C. for 10 minutes. After the reaction, 2.0 ml of Triton X-100 in 1M acetate buffer (pH, 4.0) was added to the reaction mixture so that the final concentration of the surfactant was 10%. The mixture was left at room temperature for 15 minutes and the absorbance (a) at 410 nm was measured.
A sample of a blind test was prepared by using the buffer instead of the anti-prolyl endopeptidase compound and its absorbance (b) was also measured. The percent inhibition of prolyl endopeptidase was calculated by the formula: […]
and the amount of a specific compound needed to achieve 50% inhibition (IC50) was determined.

Chain of prolyl endopeptidase (P27028 21-705): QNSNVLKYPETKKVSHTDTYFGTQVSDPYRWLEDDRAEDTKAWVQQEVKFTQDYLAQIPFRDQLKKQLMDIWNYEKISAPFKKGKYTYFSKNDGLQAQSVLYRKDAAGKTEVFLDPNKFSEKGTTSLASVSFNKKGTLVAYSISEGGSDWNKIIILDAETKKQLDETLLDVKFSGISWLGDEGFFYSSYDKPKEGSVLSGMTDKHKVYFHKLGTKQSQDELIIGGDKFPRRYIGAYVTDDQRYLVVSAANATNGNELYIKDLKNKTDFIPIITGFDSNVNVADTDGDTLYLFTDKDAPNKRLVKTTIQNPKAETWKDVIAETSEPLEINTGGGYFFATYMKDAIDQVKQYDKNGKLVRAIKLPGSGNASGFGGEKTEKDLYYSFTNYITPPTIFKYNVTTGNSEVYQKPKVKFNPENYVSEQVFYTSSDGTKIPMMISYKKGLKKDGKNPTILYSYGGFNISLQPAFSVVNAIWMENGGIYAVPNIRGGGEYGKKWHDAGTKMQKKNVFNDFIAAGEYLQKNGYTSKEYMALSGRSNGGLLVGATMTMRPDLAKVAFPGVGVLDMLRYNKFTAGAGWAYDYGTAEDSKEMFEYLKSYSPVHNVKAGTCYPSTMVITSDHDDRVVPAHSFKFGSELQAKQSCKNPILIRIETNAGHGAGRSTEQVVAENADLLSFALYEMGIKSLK

SMILES | IC50 [μg/test tube]
CC(C)C(OC(=O)CCCc1ccccc1)C(=O)N1CCCC1 (stereo not drawn) [Example 2, N-[2-(γ-phenyl)butyryloxy-3-methylbutyryl]pyrrolidine] | 0.90
CC(C)CC(OC(=O)CCCc1ccccc1)C(=O)N1CCCC1 (stereo not drawn) [Example 1, N-[2-(γ-phenyl)butyryloxy-4-methylvaleryl]pyrrolidine] | 0.70
CCCCCCC(OC(=O)CCCc1ccccc1)C(=O)N1CCCC1 (stereo not drawn) [Example 3, N-[2-(γ-phenyl)butyryloxy-n-capryloyl]pyrrolidine] | 4.0
